Reference: patent US4393225A, “AI-77 Compounds and pharmaceutically acceptable salts thereof” (Asahi Kasei Kogyo Kabushiki Kaisha, priority 1979, dated 1983)
Like-named read-outs stand apart in the source and are kept apart here.

System: ulcer
Test: Anti-ulcer test (restraint and water immersion ulcer in rats, i.p.)
Assay type: in vivo, Male Wistar rats
Conditions: for anti-ulcer activity (in words): rat, in vivo; for inhibition in vivo at 50 mg/kg: Rattus norvegicus, ip, read-out: % Inhibition of Ulcer
Procedure: The anti-ulcer and anti-edema activity of the compounds was evaluated in efficacy tests described below.
Male Wistar rats weighing about 150 g on average were not fed for 24 hours before the test. Then a solution or suspension of a predetermined concentration of the test compound in physiological saline was administered to them intraperitoneally. One hour after the administration,each rat was restrained in a net cage and submerged in a water both (21° C.) from the tail to xiphistrenun for 6 hours. Test animals were then killed (by dislocation of the cervical vertebrae), the stomach was removed and incised along the curvatura ventriculi major, and the inside wall of the stomach was pathologically examined under microscopic observation. Rats in which the occurrence of an ulceration was substantially not observed were rated O, while others were rated 0.5, 1, 2 or 3, depending on the severity of the ulcer development. The percent inhibition of ulcer was calculated by the following formula: [formula]

Compound | inhibition in vivo at 50 mg/kg (50 mg/kg i.p.) | also measured
CC(C)CC(NC(=N)C(O)C(O)C(N)CC(=O)O)C1Cc2cccc(O)c2C(=O)O1 (centres unmarked) [AI-77-A] |  | anti-ulcer activity (in words): high anti-ulcer activity
CC(C)CC(NC(=O)C(O)C(O)C(N)CC(=O)O)C1Cc2cccc(O)c2C(=O)O1 (centres unmarked) [AI-77-B] |  | anti-ulcer activity (in words): high anti-ulcer activity
CCCC(=O)NC1CC(=O)OC1C(O)C(=O)NC(CC(C)C)C1Cc2cccc(O)c2C(=O)O1 (centres unmarked) [IIIa-1-3] | 66% | 
CC(C)CC(NC(=O)C(O)C1OC(=O)CC1NC(=O)C(C)C)C1Cc2cccc(O)c2C(=O)O1 (centres unmarked) [IIIa-1-4] | 66% | 
CC(C)CC(=O)NC1CC(=O)OC1C(O)C(=O)NC(CC(C)C)C1Cc2cccc(O)c2C(=O)O1 (centres unmarked) [IIIa-1-5] |  | inhibition in vivo at 50 mg/kg: 66%
CCCCC(=O)NC1CC(=O)OC1C(O)C(=O)NC(CC(C)C)C1Cc2cccc(O)c2C(=O)O1 (centres unmarked) [IIIa-1-6] |  | inhibition in vivo at 50 mg/kg: 66%
CCCCCC(=O)NC1CC(=O)OC1C(O)C(=O)NC(CC(C)C)C1Cc2cccc(O)c2C(=O)O1 (centres unmarked) [IIIa-1-7] | 66% | 
CCCCCCC(=O)NC1CC(=O)OC1C(O)C(=O)NC(CC(C)C)C1Cc2cccc(O)c2C(=O)O1 (centres unmarked) [IIIa-1-8] | 66% | 
CCCCCCCC(=O)NC1CC(=O)OC1C(O)C(=O)NC(CC(C)C)C1Cc2cccc(O)c2C(=O)O1 (centres unmarked) [IIIa-1-9] | 66% | 
CCCCCCCCCCCC(=O)NC1CC(=O)OC1C(O)C(=O)NC(CC(C)C)C1Cc2cccc(O)c2C(=O)O1 (centres unmarked) [IIIa-1-10] | 66% | 
CCCCCCCCCCCCCCCCCC(=O)NC1CC(=O)OC1C(O)C(=O)NC(CC(C)C)C1Cc2cccc(O)c2C(=O)O1 (centres unmarked) [IIIa-1-11] | 44% | 
CC(C)CC(NC(=O)C(O)C1OC(=O)CC1NC(=O)C(Cl)(Cl)Cl)C1Cc2cccc(O)c2C(=O)O1 (centres unmarked) [IIIa-1-12] | 66% | 
CCCCCCCC/C=C\CCCCCCCC(=O)NC1CC(=O)OC1C(O)C(=O)NC(CC(C)C)C1Cc2cccc(O)c2C(=O)O1 (centres unmarked) [IIIa-1-13] | 44% | 
CC(C)CC(NC(=O)C(O)C1OC(=O)CC1NC(=O)c1ccccc1)C1Cc2cccc(O)c2C(=O)O1 (centres unmarked) [IIIa-1-14] | 56% | 
CC(C)CC(NC(=O)C(O)C1OC(=O)CC1NC(=O)c1ccc2ccccc2c1)C1Cc2cccc(O)c2C(=O)O1 (centres unmarked) [IIIa-1-15] | 44% | 
CC(C)CC(NC(=O)C(O)C1OC(=O)CC1NC(=O)C12CC3CC(CC(C3)C1)C2)C1Cc2cccc(O)c2C(=O)O1 (centres unmarked) [IIIa-1-16] | 56% | 
CC(=O)n1cc(C(=O)NC2CC(=O)OC2C(O)C(=O)NC(CC(C)C)C2Cc3cccc(O)c3C(=O)O2)c2ccccc21 (centres unmarked) [IIIa-1-17] | 66% | 
CC(C)CC(NC(=O)C(O)C1OC(=O)CC1NC(=O)C1CC1)C1Cc2cccc(O)c2C(=O)O1 (centres unmarked) [IIIa-1-18] |  | inhibition in vivo at 50 mg/kg: 66%
CC(C)CC(NC(=O)C(O)C1OC(=O)CC1NC(=O)CCCC1CCCCC1)C1Cc2cccc(O)c2C(=O)O1 (centres unmarked) [IIIa-1-19] | 66% | 
CC(C)CC(NC(=O)C(O)C1OC(=O)CC1NC(=O)Cc1ccccc1)C1Cc2cccc(O)c2C(=O)O1 (centres unmarked) [IIIa-1-20] | 66% | 
Cc1c(CC(=O)NC2CC(=O)OC2C(O)C(=O)NC(CC(C)C)C2Cc3cccc(O)c3C(=O)O2)ccc2ccccc12 (centres unmarked) [IIIa-1-21] | 56% | 
CC(C)CC(NC(=O)C(O)C1OC(=O)CC1NC(=O)c1ccco1)C1Cc2cccc(O)c2C(=O)O1 (centres unmarked) [IIIa-1-22] | 66% | 
CC(C)CC(NC(=O)C(O)C1OC(=O)CC1NC(=O)C1CCCO1)C1Cc2cccc(O)c2C(=O)O1 (centres unmarked) [IIIa-1-23] | 66% | 
CC(C)CC(NC(=O)C(O)C1OC(=O)CC1NC(=O)CC1CCCCO1)C1Cc2cccc(O)c2C(=O)O1 (centres unmarked) [IIIa-1-24] | 66% | 
CC(C)CC(NC(=O)C(O)C1OC(=O)CC1NC(=O)c1cccs1)C1Cc2cccc(O)c2C(=O)O1 (centres unmarked) [IIIa-1-25] | 66% | 
CC(C)CC(NC(=O)C(O)C1OC(=O)CC1NC(=O)CCCc1cccs1)C1Cc2cccc(O)c2C(=O)O1 (centres unmarked) [IIIa-1-26] | 66% | 
